Data taken from PMC12196321, “Discovery of Novel Inhibitors of Aspergillus fumigatus DHODH via Virtual Screening, MD Simulation, and In Vitro Activity Assay” (Molecules, 2025).

Target: T1, Aspergillus fumigatus dihydroorotate dehydrogenase (AfDHODH) (Aspergillus fumigatus, UniProt Q4X169)
T1 construct: gene AFUA_2G11010; residues 89–531 with an N-terminal His-tag
T1 sequence (Q4X169 89-531): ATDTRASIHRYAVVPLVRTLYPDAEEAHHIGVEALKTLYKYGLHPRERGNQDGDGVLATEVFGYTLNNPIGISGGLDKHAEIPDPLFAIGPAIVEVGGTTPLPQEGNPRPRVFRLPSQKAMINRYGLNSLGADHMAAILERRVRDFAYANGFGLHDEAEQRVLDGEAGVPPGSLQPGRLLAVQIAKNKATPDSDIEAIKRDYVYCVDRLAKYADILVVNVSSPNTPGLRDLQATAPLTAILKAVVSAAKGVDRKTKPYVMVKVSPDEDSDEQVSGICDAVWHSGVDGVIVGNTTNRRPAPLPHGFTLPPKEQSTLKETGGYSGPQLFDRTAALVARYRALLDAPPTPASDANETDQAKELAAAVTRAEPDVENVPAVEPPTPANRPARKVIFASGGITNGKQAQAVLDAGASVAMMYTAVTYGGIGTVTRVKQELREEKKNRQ
Experiment: DCIP colorimetric enzyme assay (absorbance at […] nm)
Format: biochemical

Row | Structure (SMILES) | IC50
1 | COC(=O)c1c(NC(=S)NNC(=O)c2ccc(Cl)s2)sc(C(=O)N(C)C)c1C [ZINC67300323] | 57.3 µM
2 | COC(=O)c1c(NC(=S)NNC(=O)c2ccc(Cl)s2)sc(C(=O)N(C)C)c1C [CHEMBL1509241] | 16.9 µM
